These results are taken from patent US11174237B2, “2-[4-(meihylaminomethyl)phenyl]-5-fluoro- benzofuran-7-carboxamide hydrochloride polymorph, preparation method therefor and application thereof” (SHANGHAI INSTITUTE OF MATERIA MEDICA, CHINESE ACADEMY OF …, priority 2017, dated 2021).

The data set can be described thus: Thermogravimetric analysis (TGA) of the crystal forms. Format: physicochemical. The protocol:
4) TGA method Instrument model: Netzsch TG 209F3, temperature range 30-400° C., scan rate 10K/min, purge gas flow rate 25 mL/min, shielding gas flow rate 15 mL/min.

On to `CNCc1ccc(-c2cc3cc(F)cc(C(N)=O)c3o2)cc1.Cl` [crystal form A, 2-[4-(methylaminomethyl)phenyl]-5-fluoro-benzofuran-7-carboxamide hydrochloride], for which the thermal stability result (conclusion from the DSC/TG experimental results) is “good thermal stability”.
For the compound `CNCc1ccc(-c2cc3cc(F)cc(C(N)=O)c3o2)cc1.Cl` [crystal form C, 2-[4-(methylaminomethyl)phenyl]-5-fluoro-benzofuran-7-carboxamide hydrochloride], under “TG, 30-400° C., scan rate 10K/min”, the “temperature at which the crystal form begins to decompose according to the thermogravimetric analysis” value is 250±20 °C.
